Starred links: 1 amine or outer side, 2 acyl side, 3 side chain; linkers in the order of their positions; H or OH if unused. Residues, ends and D or L forms follow the SMILES beside them. *: point of attachment. C18 diacid = O=C(O)CCCCCCCCCCCCCCCCC(=O)*; γGlu = O=C(O)[C@H](CCC(=O)[*:2])N[*:1]

Drawing on patent publication US12116388B2, “Amylin receptor agonists” (Novo Nordisk A/S, priority 2022, dated 2024), this text covers EC50 for two compounds.

The assay deals with T1, human calcitonin receptor (hCTR) (Homo sapiens, UniProt P30988).
T1 construct: host or cells: BHK (Baby Hamster Kidney), Hollex-1 cell line
T1 sequence (P30988 25-474): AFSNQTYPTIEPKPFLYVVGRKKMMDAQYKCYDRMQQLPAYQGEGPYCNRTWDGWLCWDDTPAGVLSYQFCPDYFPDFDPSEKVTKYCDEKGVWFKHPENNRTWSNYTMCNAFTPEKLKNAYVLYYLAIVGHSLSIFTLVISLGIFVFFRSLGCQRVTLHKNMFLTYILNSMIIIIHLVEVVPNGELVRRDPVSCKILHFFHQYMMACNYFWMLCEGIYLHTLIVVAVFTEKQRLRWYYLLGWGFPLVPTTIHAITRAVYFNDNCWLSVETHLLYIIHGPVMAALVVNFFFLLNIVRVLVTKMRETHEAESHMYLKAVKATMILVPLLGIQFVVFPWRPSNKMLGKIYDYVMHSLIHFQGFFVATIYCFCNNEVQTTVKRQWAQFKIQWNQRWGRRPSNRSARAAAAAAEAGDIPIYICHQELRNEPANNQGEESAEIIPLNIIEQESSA
Kind of assay: Human calcitonin receptor (hCTR) in vitro potency assay, CRE-luciferase reporter in BHK cells. Type of assay: cell-based. The following applies: BHK hCTR/CRE-Luc cells, 3 hours incubation, assay buffer with 1% ovalbumin; read-out: hCalcR potency, EC50. Summed up:
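Luciferase signal from a CRE reporter served as the cAMP read-out after 3 h, 37 °C exposure to compound. Cells were stably transfected BHK expressing hCTR, and the buffer was phenol-red-free DMEM with 10 mM HEPES and 1% ovalbumin. Compounds were tested as 7-point, 7-fold dilutions, often from about 10 nM.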

Broadly, the EC50 is the concentration needed to bring the measured effect to its halfway point. Regarding `CC[C@H](C)[C@H](NC(=O)[C@H](C)NC(=O)CNC(=O)[C@H](Cc1ccccc1)NC(=O)[C@@H]1CCCN1C(=O)[C@H](CC(=O)O)NC(=O)[C@H](CO)NC(=O)[C@H](CO)NC(=O)[C@H](Cc1c[nH]cn1)NC(=O)[C@H](Cc1c[nH]cn1)NC(=O)[C@H](CC(C)C)NC(=O)[C@H](Cc1ccccc1)NC(=O)[C@H](CCC(=O)O)NC(=O)[C@H](C)NC(=O)[C@H](CC(C)C)NC(=O)[C@H](CCCNC(=N)N)NC(=O)[C@H](CCC(N)=O)NC(=O)[C@@H](NC(=O)[C@H](CCC(N)=O)NC(=O)[C@H](C)NC(=O)[C@@H](NC(=O)[C@H](CO)NC(=O)[C@H](CC(C)C)NC(=O)[C@H](CCC(N)=O)NC(=O)[C@H](CO)NC(=O)[C@H](C)NC(=O)CC[C@H](NC(=O)CCCCCCCCCCCCCCCCC(=O)O)C(=O)O)[C@@H](C)O)[C@@H](C)O)C(=O)N1CCC[C@H]1C(=O)N[C@@H](CO)C(=O)N[C@@H](CO)C(=O)N[C@H](C(=O)N[C@@H](CC(=O)O)C(=O)N[C@H](C(=O)NCC(=O)N1CCC[C@H]1C(=O)N[C@@H](CC(=O)O)C(=O)N[C@H](C(=O)N1CCC[C@H]1C(N)=O)[C@@H](C)O)C(C)C)[C@@H](C)O` [Compound 24] ({C18 diacid-γGlu}-ASQLSTAQTQRLAEFLHHSSDPFGAIPSSTDVGPDTP-NH2), the EC50 was 1.56 pM.
For `CC[C@H](C)[C@H](NC(=O)[C@@H]1CCCN1C(=O)CNC(=O)[C@H](Cc1ccccc1)NC(=O)[C@H](Cc1c[nH]cn1)NC(=O)[C@H](Cc1c[nH]cn1)NC(=O)[C@H](CC(C)C)NC(=O)[C@H](Cc1ccccc1)NC(=O)[C@H](CCC(=O)O)NC(=O)[C@H](C)NC(=O)[C@H](CC(C)C)NC(=O)[C@H](CCCNC(=N)N)NC(=O)[C@H](C)NC(=O)[C@@H](NC(=O)[C@H](CCC(N)=O)NC(=O)[C@H](C)NC(=O)[C@@H](NC(=O)[C@H](CO)NC(=O)[C@H](CC(C)C)NC(=O)[C@H](Cc1c[nH]cn1)NC(=O)[C@H](CO)NC(=O)[C@H](C)NC(=O)CC[C@H](NC(=O)CC[C@H](NC(=O)CCCCCCCCCCCCCCCCC(=O)O)C(=O)O)C(=O)O)[C@@H](C)O)[C@@H](C)O)C(=O)N[C@@H](CC(C)C)C(=O)N1CCC[C@H]1C(=O)N1CCC[C@H]1C(=O)N[C@H](C(=O)N[C@@H](CC(=O)O)C(=O)N[C@H](C(=O)NCC(=O)N[C@@H](CO)C(=O)N[C@@H](CCC(=O)O)C(=O)N[C@H](C(=O)N1CCC[C@H]1C(N)=O)[C@@H](C)O)C(C)C)[C@@H](C)O` [Compound 17, N^1-[(4S)-4-carboxy-4-[[(4S)-4-carboxy-4-(17-carboxyheptadecanoylamino)butanoyl]amino]butanoyl]-[Ala1,Ser2,His3,Leu4,Ser5,Ala7,Gln8,Ala10,Glu14,His17,Pro25,Pro28,Pro29,Asp31,Glu35,Pro37],des-(19-22)-human amylin] ({C18 diacid-γGlu-γGlu}-ASHLSTAQTARLAEFLHHFGPILPPTDVGSETP-NH2), the EC50 was 1.15 pM.
